Reference: the supplement of paper PMC12350171

How the values were obtained:
[1] = tested on: Yersinia pseudotuberculosis; test: IC25 growth inhibition; higher = less potent
In short: (§1)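 Overnight monocultures grown in mGAM were moved into pre-reduced plates containing twofold drug dilutions, at a starting OD578 of 0.01 with 1% DMSO (or water). Plates were kept anaerobic and read hourly at OD578 in a plate reader, with at least three biological replicates. For each concentration, the median area under the growth curve was made monotonic, and IC25 was the lowest concentration whose median fell below a cutoff, reported as a tested interval. That cutoff was 0.75.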

Clostridium bolteae = test: IC25 growth inhibition; higher = less potent
In short: as §1

Parabacteroides merdae = test: IC25 growth inhibition; higher = less potent
In short: as §1

Streptococcus salivarius = test: IC25 growth inhibition; higher = less potent
In short: as §1

Bacteroides vulgatus = test: IC25 growth inhibition; higher = less potent
In short: as §1

Bacteroides fragilis NT = test: IC25 growth inhibition; higher = less potent
In short: as §1

Clostridium ramosum = test: IC25 growth inhibition; higher = less potent
In short: as §1

Bacteroides uniformis = test: IC25 growth inhibition; higher = less potent
In short: as §1

[2] = tested on: Bacteroides thetaiotaomicron; test: IC25 growth inhibition; higher = less potent
In short: as §1

Vibrio cholerae = test: IC25 growth inhibition; higher = less potent
In short: as §1

[3] = tested on: Clostridium saccharolyticum; test: IC25 growth inhibition; higher = less potent
In short: as §1

[4] = tested on: Salmonella enterica typhimurium; test: IC25 growth inhibition; higher = less potent
In short: as §1

Collinsella aerofaciens = test: IC25 growth inhibition; higher = less potent
In short: as §1

Escherichia coli ED1a = test: IC25 growth inhibition; higher = less potent
In short: as §1

Roseburia intestinalis = test: IC25 growth inhibition; higher = less potent
In short: as §1

[5] = tested on: Yersinia enterocolitica WA-314; test: IC25 growth inhibition; higher = less potent
In short: as §1

Eubacterium rectale = test: IC25 growth inhibition; higher = less potent
In short: as §1

Dorea formicigenerans = test: IC25 growth inhibition; higher = less potent
In short: as §1

[6] = tested on: Streptococcus parasanguinis; test: IC25 growth inhibition; higher = less potent
In short: as §1

Shigella flexneri = test: IC25 growth inhibition; higher = less potent
In short: as §1

Clostridium perfringens = test: IC25 growth inhibition; higher = less potent
In short: as §1

Ruminococcus gnavus = test: IC25 growth inhibition; higher = less potent
In short: as §1

Coprococcus comes = test: IC25 growth inhibition; higher = less potent
In short: as §1

[7] = tested on: Fusobacterium nucleatum subsp. Nucleatum; test: IC25 growth inhibition; higher = less potent
In short: as §1

[8] = tested on: Com21 synthetic gut community; test: community biomass OD578 after 24 h drug treatment relative to untreated (fraction of untreated control); higher = more community growth; conditions: community: Com21 (Com20 + E. coli ED1a)
Procedure: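 Com21 (Com20 plus E. coli ED1a) was treated with drug for 24 h under anaerobic conditions in mGAM. Community OD578 was then measured and normalised to untreated Com21; mean of 3 biological replicates.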

[9] = drug pretreatment concentration 10 µM
[10] = drug pretreatment concentration 20 µM
[11] = drug pretreatment concentration 40 µM
[12] = drug pretreatment concentration 80 µM
[13] = drug pretreatment concentration 160 µM
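For IC25 growth inhibition in this document: lowest concentration where monotonic median growth AUC falls below 0.75 of drug-free control.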

Row | Compound | IC25 growth inhibition [1] | IC25 growth inhibition (Clostridium bolteae) | IC25 growth inhibition (Parabacteroides merdae) | IC25 growth inhibition (Streptococcus salivarius) | IC25 growth inhibition (Bacteroides vulgatus) | IC25 growth inhibition (Bacteroides fragilis NT) | IC25 growth inhibition (Clostridium ramosum) | IC25 growth inhibition (Bacteroides uniformis) | IC25 growth inhibition [2] | IC25 growth inhibition (Vibrio cholerae) | IC25 growth inhibition [3] | IC25 growth inhibition [4] | IC25 growth inhibition (Collinsella aerofaciens) | IC25 growth inhibition (Escherichia coli ED1a) | IC25 growth inhibition (Roseburia intestinalis) | IC25 growth inhibition [5] | IC25 growth inhibition (Eubacterium rectale) | IC25 growth inhibition (Dorea formicigenerans) | IC25 growth inhibition [6] | IC25 growth inhibition (Shigella flexneri) | IC25 growth inhibition (Clostridium perfringens) | IC25 growth inhibition (Ruminococcus gnavus) | IC25 growth inhibition (Coprococcus comes) | IC25 growth inhibition [7] | community biomass OD578 [8, 9] | community biomass OD578 [8, 10] | community biomass OD578 [8, 11] | community biomass OD578 [8, 12] | community biomass OD578 [8, 13] | community biomass OD578 ([8]; drug pretreatment concentration 2.5 µM) | community biomass OD578 ([8]; drug pretreatment concentration 5 µM)
1 | CCCc1nc2c(C)cc(-c3nc4ccccc4n3C)cc2n1Cc1ccc(-c2ccccc2C(=O)O)cc1 [Telmisartan] | > 40 µM | > 80 µM | > 160 µM | ≤ 40 µM | > 160 µM | > 160 µM | ≤ 40 µM | > 160 µM | > 160 µM | > 40 µM | > 80 µM | > 160 µM | > 160 µM | > 160 µM | > 160 µM | > 40 µM | > 80 µM | > 80 µM | > 160 µM | > 40 µM | > 160 µM | > 160 µM | > 80 µM | > 80 µM | 0.994 | 0.966 | 0.932 | 0.892 | 0.956 |  | 
2 | CC(C)(C)c1ccc(C(O)CCCN2CCC(C(O)(c3ccccc3)c3ccccc3)CC2)cc1 (configuration not stated) [Terfenadine] | > 80 µM | ≤ 80 µM | ≤ 80 µM | ≤ 80 µM | ≤ 40 µM | ≤ 80 µM | > 80 µM | ≤ 80 µM | ≤ 80 µM | > 40 µM | ≤ 40 µM | > 160 µM | ≤ 20 µM | > 160 µM | ≤ 10 µM | > 40 µM | ≤ 80 µM | ≤ 20 µM | ≤ 80 µM | > 80 µM | ≤ 80 µM | ≤ 20 µM | ≤ 80 µM | ≤ 80 µM | 0.953 | 0.96 | 0.863 | 0.542 | 0.35 |  | 
3 | Nc1nc(=S)c2ncn([C@@H]3O[C@H](CO)[C@@H](O)[C@H]3O)c2[nH]1 [Thioguanosine] | ≤ 20 µM | > 40 µM | > 40 µM | > 40 µM | > 40 µM | > 40 µM | > 40 µM | > 40 µM | > 40 µM | > 40 µM | > 40 µM | > 40 µM | > 40 µM | ≤ 2.5 µM | > 40 µM | > 40 µM | > 40 µM | > 40 µM | > 40 µM | ≤ 2.5 µM | > 40 µM | > 40 µM | > 40 µM | > 40 µM | 1.02 | 1.05 | 1.01 |  |  | 1.01 | 1.01
